Reference: a melting point compilation (Tetko et al.; mined from patent text by program, amines drawn as free bases though some values may be those of a salt)

SMILES	melting point [°C]
O=S(c1[nH]c(Br)c(Br)c1-c1ccc(Cl)cc1)C(F)(F)F (configuration not stated)	166 to 168
COc1cc2c(cc1O)[nH]c1cc(-c3ccccc3Cl)c3c(c12)C(=O)NC3=O	194 to 196
Cc1ccc(N2C(=O)C(O)=C(C(=O)c3ccc(C(F)(F)F)nc3)C2c2ccc(OC(F)(F)F)cc2)nn1 (configuration not stated)	172
CC1(N)CN(c2c(F)cc3c(=O)c4c(=O)[nH]sc4n(C4CC4)c3c2F)C1	294 to 300
CC(C)c1ccc2c(c1)c(SC1CCCCC1)c(CC(C)(C)C(=O)O)n2Cc1ccc(Cl)cc1	166 to 168
O=C(O)c1ncc(C(c2ccccc2)c2ccccc2)cc1C(c1ccccc1)c1ccccc1	172 to 175
Cc1c[nH]c2ccc(-c3nn(C(C)c4oc5ccccc5c(=O)c4-c4cccc(F)c4)c4ncnc(N)c34)cc12 (configuration not stated)	171 to 173
COc1cc2c(cc1S(=O)(=O)c1ccc(F)cc1)CCN(C)CC2	129 to 130
CCOC(=O)c1c(O)c2ccc(F)cc2c(=O)n1CC(C)C	104 to 105
N#CCc1ccc(C(=O)C2CC2)cc1	86 to 87
CCOC(=O)C(=O)Nc1cc(Cl)c(Cl)cc1[N+](=O)[O-]	96 to 97
CN(CC1CCCCN1CC(=O)N1c2ccccc2NC(=O)c2ccccc21)C1CCCCC1 (configuration not stated)	146 to 148
COc1cc(Nc2c(C#N)cnc3sc(CCCCO)cc23)cc(OC)c1OC	125 to 127
COc1cc(Cl)c2c(=O)c(Br)coc2c1	176 to 177
COc1cc(C(F)(F)F)cc(OC)n1	26 to 27
Cc1cc2cn[nH]c2c(C(=O)NC2(C3CC3)CC2)c1NC(=O)c1cc(OCC(F)(F)F)nn1-c1ncccc1Cl	240 to 242
Cc1csc(N)c1S(=O)(=O)CC#N	88 to 90
CC(=O)c1cncn1C1c2ccccc2CC1(C)C (configuration not stated)	69 to 70
O=C(O)C(OCc1ccc(-c2ccc(Cl)cc2)cc1)c1ccccc1 (configuration not stated)	119 to 121
O=C(CCCC(Cc1cccc2ccccc12)C(=O)O)c1ccccc1 (configuration not stated)	134 to 136
CC(CF)(CF)C(O)C(Oc1ccc(Cl)cc1)n1ccnc1 (configuration not stated)	137
C1=C(c2ccc3ccccc3c2)CCC2(C1)CCNCC2	137 to 141
Cc1ccc(Oc2c(C)cc([N+](=O)[O-])c(C)c2Cl)c(C)c1	78 to 80
C=C(C)C(=O)O[C@H]1C[C@@H](C(=O)OC)[C@]2(C)CC[C@H]3C(=O)O[C@H](c4ccoc4)C[C@]3(C)[C@H]2C1=O	196 to 199
N#Cc1cnn2c(C(F)(F)F)cc(-c3ccc(F)cc3F)nc12	149

SMILES	melting point [°C]
CCCC(=O)c1cnc2c(OCCCN(C)CCCc3ccccc3)cccc2c1Nc1ccccc1C	79 to 81
CCc1nc(-c2cc(Cl)c(O)c(Cl)c2)no1	126
CNC(=O)N=C(NC(=O)Nc1ccc(Cl)cc1)OC	169 to 171
O=C(O)c1cc([N+](=O)[O-])cc2c1Nc1cc(-c3ccccc3)ccc1O2	> 250
CCc1c(CCNC(=O)CCCCC(=O)OC)ccc(OC)c1OC	37 to 39
OC1CCc2c(-c3cccs3)cccc21 (configuration not stated)	101 to 104
CC(N1CCN(C=O)CC1)C(O)(Cn1cncn1)c1ccc(F)cc1F (configuration not stated)	118 to 120
Cc1c(C(=O)Nc2ccc(N3CCN(C4CCOCC4)CC3)c(C#N)c2)cnn1-c1ccc(C(F)(F)F)cc1	274
CN(C)C=Cc1cccnc1C#N	71.5 to 72
COC(=O)CC(c1ccc(F)cc1)C(C#N)C(=O)OC (configuration not stated)	80.2
O=C(O)CC=C(c1ccccc1)c1ccc(F)cc1	98 to 100
Clc1cc(Cl)c2c(c1)C[C@@H]1CCc3ccccc3[C@@H]1O2 (relative stereo)	141 to 144
C=CCNC(=O)C1CCc2cc(-c3ccccc3)ccc2O1 (configuration not stated)	123 to 124
CC(NC(=O)C1(C(F)(F)F)CC(C)(Cl)C1)c1ccc(Cl)cc1 (configuration not stated)	129 to 130
O=c1ccn(C2OC(CO)C(O)C2Br)c(=O)[nH]1 (configuration not stated)	194 to 195
COC(=O)c1nc(Cl)c(Cl)c(N)c1I	122 to 123
COC(=O)c1nn(Cc2ccc(Cl)cc2Cl)c2ccccc12	168 to 170
CON=Cc1ccc(-c2ccccc2NC(=O)c2c(C)nn(C)c2F)cc1	114 to 116
O=C1c2cccc3cc4ccccc4c(c23)C(=O)N1CCN1CCCN(CCN2C(=O)c3cccc4cc5ccccc5c(c34)C2=O)C1	222
O=C(O)c1cc(Br)cc2c1NCCS2=O (configuration not stated)	254 to 255
COCCOCc1c(CN(C)CC(O)c2c[nH]c3ccccc23)sc2c(=O)c(C(=O)NCc3ccc(Cl)cc3)cn(C)c12 (configuration not stated)	167 to 169
CSc1cc2c(cn1)c(=O)n(C)c1cc(C)nn21	> 300
COc1cc(C=CC(=O)OC2CC3CC(OC(=O)C=Cc4cc(OC)c(OC)c(OC)c4)C(C2)N3C)cc(OC)c1OC (configuration not stated)	53 to 57
O=C1Cc2cc3c(cc2CCN1)OCO3	236 to 237

Results, then the compound that gave them:

melting point [°C]	SMILES
200 to 203	O=C1c2ccc(SCc3ccccc3)cc2C(=O)c2cc3ccccc3cc21
50 to 51	COC(=O)COc1ccc(NC(=O)c2cc(F)cc(N3CCC(C)CC3)c2)c2ccccc12
194 to 197	Oc1ccc2cc(-c3csc(-c4ccccc4)n3)ccc2c1
90 to 91	Cc1ccc(S(=O)(=O)OC[C@H]2COc3ccc(Cl)cc3O2)cc1
149 to 150	COc1ccc2nc(SCc3nccc(OCC(F)(F)F)c3OC)[nH]c2c1
183 to 185	Cc1oc2ccc(C3CC(=O)NC(=O)C3)cc2c1C
125 to 130	C[C@@H](n1cnc2cc(S(=O)(=O)c3ccccc3)ccc2c1=O)[C@](O)(Cn1cncn1)c1ccc(F)cc1F
204 to 205	CCOC(=O)C1=C(COCCNC2=NC(=O)CS2)NC(C)=C(C(=O)OC)C1c1cccc(Cl)c1Cl (configuration not stated)
98 to 101	Cc1cc(C)c(S(=O)(=O)Oc2nc(Nc3ccc(F)cc3F)c(C(=O)n3ccnc3)cc2F)c(C)c1
130 to 134	CCCCOCCOc1ccc(-c2ccc3c(c2)C=C(C(=O)OC)CCN3C(=O)CNC(C)=O)cc1
91 to 92	CCC(=O)c1ccc(CCN(C(C)=O)S(=O)(=O)c2ccc(Cl)cc2)cc1
82	COc1cc(C(=O)CBr)ccc1OC(C)=O
158 to 160	COc1ccc(-c2cnc(N3CCC(O)CC3)nc2)cc1
105 to 106	Cc1ccc(Sc2ccccc2C(=O)N(C)C)c([N+](=O)[O-])c1
70 to 72	COCc1ccc2c(c1)ncn2-c1cccc(-c2ccccc2)c1
205	CCCCc1cc(OCCc2ccc(C(=O)O)cc2)c2ccccc2n1
133 to 134	O=C(O)CCC(=O)c1ccc(OCCCCN2C(=O)c3ccccc3C2=O)cc1
155 to 156	CNC(c1ccc(OC)cc1)c1csc(S(N)(=O)=O)c1 (configuration not stated)
85 to 90	COC(=O)c1c(O)cccc1OCCCCNC(=O)CCc1ccc(N2CC(=O)NS2(=O)=O)c(O)c1
196 to 198	Cc1cccc2c1C(=O)c1c-2csc1N
136 to 137	Cc1oc(-c2ccccc2)nc1COc1ccc(Sc2nc(-c3ccccc3)c(CCC(=O)O)o2)cc1
82 to 84	Cc1ccccc1S(=O)(=O)NC(=O)n1sc(Cl)cc1=O
148 to 151	CCN1N=C(c2ccc(F)cc2)c2cc(F)ccc2CS1(=O)=O
132 to 133	Cc1cc(N)cc(C)c1S(=O)(=O)C[N+](=O)[O-]

melting point [°C]	SMILES
164 to 166	CC(=O)c1ccc2nc(-n3ccnc3)nc(NCCOCCO)c2c1
62 to 63	CCOCC(COCC)Oc1ccc(/C=C/C(=O)O)c(Oc2ncc(C(F)(F)F)cc2Cl)c1
225 to 227	COc1ccn2c(Cl)c(CCc3ccc4nc(N)oc4c3)nc2c1
230 to 231	COc1cc(C=CC=C2SC(=O)NC2=O)ccc1OC(C)C
128 to 129	COCC1CN(c2ccc3cc(OCCS(C)(=O)=O)ccc3c2)C(=O)O1 (configuration not stated)
200 to 201	CCOC(=O)c1cn(C(C)(C)C)c2nc(NC(=O)c3ccc(C)cc3)sc12
206 to 207	CC1(C)C(=O)Nc2ccc(-c3cc(F)cc(Cl)c3)cc21
179 to 185	O=C(/C=C/c1ccc2ccccc2c1)Nc1cc(Cl)ccc1NC(=O)C(F)(F)F
223 to 224	CCn1c(=O)c2c(nc(/C=C/c3cccc(OC(=O)c4ccccc4)c3)n2C)n(CC)c1=O
251 to 253	COc1cc(Cl)ccc1NC(=O)C1CCCn2c1nc(-c1ccncn1)cc2=O (configuration not stated)
198	Cc1[nH]c(=O)n(C2CCCCC2)c1-c1ccc(Oc2ccccc2)cc1
> 260	Cc1ccccc1NC(=O)NCc1cccc2c1C(=O)N(C1CCC(=O)NC1=O)C2=O (configuration not stated)
171 to 173	COc1ccc(C(=O)O)cc1OC1CC=CC1
153 to 155	Cc1ccc(S(=O)(=O)O[C@H](C)C(=O)N2C(=O)N(C)C[C@H]2C(=O)OCc2ccccc2)cc1
235	COC(=O)C1=C(C)Nc2n[nH]cc2C1c1ccccc1Cl (configuration not stated)
215 to 217	Cn1c(=O)[nH]c2nc3ccc(OCCCC(=O)N4CCCCC4)cc3cc21
209 to 211	CCOC(=O)c1ccc(-n2cnnc2)cc1
184 to 186	CCOC(=O)Cc1c(C(=O)O)c(CC)c(C(=O)c2ccc(Cl)cc2)n1C
94 to 95	CCc1ccc(/C=C/c2nc(COc3ccc(CCCCn4ccnc4CCO)cc3)co2)cc1
168	CC(=O)Oc1ccc2c(c1)Cc1cc(OC(C)=O)ccc1-2
150 to 151	COc1ccc(COc2ccc(CC(=O)O)cc2Cl)cc1Cl
69 to 75	CCCCC(=O)N(C(=O)NC(=O)c1ccccc1[N+](=O)[O-])c1ccc(Oc2ncc(Cl)cn2)c(C)c1
168 to 170	Nc1nc2ccccc2c2c1nc(COc1ccccc1)n2CCOc1ccccc1
241 to 242	Cn1c(=O)c(-c2ccc(Cl)cc2Cl)cc2c3cc(-c4ccno4)ccc3n(C)c21
